Measurements reported in patent EP0238198A2, “Method of modifying the lipid structure function and expression of cell membranes and pharmaceutical compositions for use therein” (Habib, Nagy Adly, priority 1986, dated 1987).
Where two headings read alike, the source gives them in different places.

Experiments:
[1] = test system: three cancer cell lines from bladder, testis and hepatoma (liver cancer); assay: clonogenic assay with three cancer cell lines; format: cell-based; parameters: inhibition of cell division: dose or concentration left out as unconfirmed
Procedure: In vitro studies have been conducted using a clonogenic assay utilising three cancer cell lines from bladder, testis and hepatoma (liver cancer), incubating the cells for two weeks with saturated fatty acids. The control cells were incubated without any addition. The control cells grew during this time period and formed multiple colonies, as was expected.

[2] = test system: type 2 herpes simplex virus (HSV); assay: HSV2 replication in human embryonic lung fibroblasts (virus yield); format: cell-based, HSV type 2; details: Human alphaherpesvirus 2, Fibroblast, 28 h; for inhibition at 25 µM: stearic acid 25 µM; for inhibition at 50 µM: stearic acid 50 µM; for inhibition at 100 µM: stearic acid 100 µM
Procedure: Stearic and iodinated stearic acids were assayed for their inhibitory effects on the replication of type 2 herpes simplex virus (HSV) in sub-confluent monolayer cultures of human embryonic lung fibroblasts. […] This was accomplished by reacting hydriodic acid with oleic acid in acetic acid at 20°C. Excess iodine was removed at the end of the reaction by the addition of an excess of sodium thiosulphate, and the product fatty acid was extracted into hexane.
Bovine serum albumin conjugates of the fatty acids (prepared according to the method of A.A.Spector and-J.C.Hoak, J.Anal.Biochem. 1969, 32, 297-302) were added to the cell culture medium at various concentrations in the range 25 - 100 micromolar final concentration and at various times before and after (from 0 to 12 hours) infection with partially purified clinical isolates of HSV type 2, at a multiplicity of infection of 0.1 plaque forming units/cell.
28 hours after infection the titre of infectious virus in the culture supernatants was determined by standard infectious centre techniques on fresh human embryonic lung fibroblasts.

[3] = time relative to infection 0 hours, read-out: % reduction in virus yield compared with control cultures
[4] = time relative to infection 1 hours, read-out: % reduction in virus yield compared with control cultures
[5] = time relative to infection 2 hours, read-out: % reduction in virus yield compared with control cultures
[6] = time relative to infection 3 hours, read-out: % reduction in virus yield compared with control cultures
[7] = time relative to infection 4 hours, read-out: % reduction in virus yield compared with control cultures
[8] = time relative to infection 8 hours, read-out: % reduction in virus yield compared with control cultures
[9] = time relative to infection 12 hours, read-out: % reduction in virus yield compared with control cultures
[10] = time relative to infection -1 hours, read-out: % reduction in virus yield compared with control cultures
[11] = time relative to infection -2 hours, read-out: % reduction in virus yield compared with control cultures
[12] = time relative to infection -3 hours, read-out: % reduction in virus yield compared with control cultures
[13] = time relative to infection -4 hours, read-out: % reduction in virus yield compared with control cultures
[14] = time relative to infection -8 hours, read-out: % reduction in virus yield compared with control cultures
[15] = time relative to infection -12 hours, read-out: % reduction in virus yield compared with control cultures

Compound: CCCCCCCCCCCCCCCCCC(=O)O [stearic acid, octadecanoic acid]
- cell division (colony formation) ([1]; incubation for two weeks, inhibition related to dose): failed to divide
- inhibition of cell division ([1]; two weeks): complete inhibition of cell division
- inhibition at 75 µM ([2]; 75 micromolar in the culture medium, cells treated for 3-4 hours before infection, read-out: maximum anti-viral activity (reduction in virus yield)): 48%
- inhibition at 25 µM [2, 3]: 0%
- inhibition at 25 µM [2, 4]: 5%
- inhibition at 25 µM [2, 5]: 0%
- inhibition at 25 µM [2, 6]: 10%
- inhibition at 25 µM [2, 7]: 1%
- inhibition at 25 µM [2, 8]: 0%
- inhibition at 25 µM [2, 9]: 3%
- inhibition at 25 µM [2, 10]: 6%
- inhibition at 25 µM [2, 11]: 14%
- inhibition at 25 µM [2, 12]: 4%
- inhibition at 25 µM [2, 13]: 2%
- inhibition at 25 µM [2, 14]: 10%
- inhibition at 25 µM [2, 15]: 0%
- inhibition at 50 µM [2, 3]: 7%
- inhibition at 50 µM [2, 4]: 8%
- inhibition at 50 µM [2, 5]: 0%
- inhibition at 50 µM [2, 6]: 10%
- inhibition at 50 µM [2, 7]: 0%
- inhibition at 50 µM [2, 8]: 5%
- inhibition at 50 µM [2, 9]: 9%
- inhibition at 50 µM [2, 10]: 27%
- inhibition at 50 µM [2, 11]: 30%
- inhibition at 50 µM [2, 12]: 27%
- inhibition at 50 µM [2, 13]: 8%
- inhibition at 50 µM [2, 14]: 0%
- inhibition at 50 µM [2, 15]: 0%
- inhibition at 75 µM ([2]; stearic acid 75 µM, time relative to infection 0 hours, read-out: % reduction in virus yield compared with control cultures): 18%
- inhibition at 75 µM ([2]; stearic acid 75 µM, time relative to infection 1 hours, read-out: % reduction in virus yield compared with control cultures): 0%
- inhibition at 75 µM ([2]; stearic acid 75 µM, time relative to infection 2 hours, read-out: % reduction in virus yield compared with control cultures): 9%
- inhibition at 75 µM ([2]; stearic acid 75 µM, time relative to infection 3 hours, read-out: % reduction in virus yield compared with control cultures): 0%
- inhibition at 75 µM ([2]; stearic acid 75 µM, time relative to infection 4 hours, read-out: % reduction in virus yield compared with control cultures): 3%
- inhibition at 75 µM ([2]; stearic acid 75 µM, time relative to infection 8 hours, read-out: % reduction in virus yield compared with control cultures): 10%
- inhibition at 75 µM ([2]; stearic acid 75 µM, time relative to infection 12 hours, read-out: % reduction in virus yield compared with control cultures): 5%
- inhibition at 75 µM ([2]; stearic acid 75 µM, time relative to infection -1 hours, read-out: % reduction in virus yield compared with control cultures): 41%
- inhibition at 75 µM ([2]; stearic acid 75 µM, time relative to infection -2 hours, read-out: % reduction in virus yield compared with control cultures): 38%
- inhibition at 75 µM ([2]; stearic acid 75 µM, time relative to infection -3 hours, read-out: % reduction in virus yield compared with control cultures): 47%
- inhibition at 75 µM ([2]; stearic acid 75 µM, time relative to infection -4 hours, read-out: % reduction in virus yield compared with control cultures): 48%
- inhibition at 75 µM ([2]; stearic acid 75 µM, time relative to infection -8 hours, read-out: % reduction in virus yield compared with control cultures): 3%
- inhibition at 75 µM ([2]; stearic acid 75 µM, time relative to infection -12 hours, read-out: % reduction in virus yield compared with control cultures): 8%
- inhibition at 100 µM [2, 3]: 11%
- inhibition at 100 µM [2, 4]: 14%
- inhibition at 100 µM [2, 5]: 8%
- inhibition at 100 µM [2, 6]: 11%
- inhibition at 100 µM [2, 7]: 0%
- inhibition at 100 µM [2, 8]: 7%
- inhibition at 100 µM [2, 9]: 1%
- inhibition at 100 µM [2, 10]: 30%
- inhibition at 100 µM [2, 11]: 36%
- inhibition at 100 µM [2, 12]: 35%
- inhibition at 100 µM [2, 13]: 20%
